Test results from US12448383B2, “Compounds and methods for treatment of viral infections” (priority 2022, dated 2025).
Read-outs that look alike come from different tables or passages of the source.

Columns and labels:
[1] = Stability in pH2 buffered solution; assay type: physicochemical
Description: Example N: Stability in p112 and p117 Buffered Solutions
The aqueous stability of compounds over a time of 24 hours at 40° C. was assessed. Stability was determined in 50 mM phosphate buffered solutions at both pH2 and pH7, with 150 mM NaCl (to achieve isotonicity). 3-5 mg of solid compounds were added to 7 mL scintillation vials. Acetonitrile was added to each vial to produce a 1 mg/mL stock solution. Stock solutions were diluted to 50 μg/mL in either pH2 or pH7 phosphate buffer, to a volume of 1 mL. For each compound and pH condition, 50 μg/mL samples were prepped in duplicate. One sample was placed on the UPLC tray at 40° C. for analysis, and the second sample was placed in a 40° C. oven for storage. Sample preps for each compound were offset by 40 minutes to account for run time on UPLC.
Concentration timepoints were measured at 0, 3, 6, 9, and 12 hrs. After 24 hrs, samples in the 40° C. oven were removed and analyzed by UPLC.
In FIG. 2, % AN stands for % area normalized. That is, % AN is the area of the compound peak relative to the sum of areas of all the peaks in the UPLC chromatogram. For example, if there were two peaks, compound peak with an area of 9 and another peak with an area of 1, then the % AN of the compound peak would be 90%.

[2] = system: Respiratory syncytial virus recombinant with luciferase (RSV-Luc5) in HEp-2 cells; experiment: microbe, parasite or virus in culture; assay type: cell-based; settings: human respiratory syncytial virus, HEp-2, 72 h, read-out: RSV Hep2 EC50
[3] = system: SARS Coronavirus 2 recombinant with NanoLuc (SARS-CoV2-NLuc) in A549-hACE2 cells; experiment: organism not typed; assay type: cell-based
[4] = system: Respiratory syncytial virus recombinant with luciferase (RSV-Luc5) in Normal Human Bronchial Epithelial (NHBE) cells; experiment: microbe, parasite or virus in culture; assay type: cell-based
[5] = CC50 MT4 cytotoxicity (Cell-Titer Glo); assay type: cell-based; settings: human
Summary of the method: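 CC50 values are the concentrations cutting viability by 50%, fitted by non-linear regression against untreated (100%) and 2 μM puromycin (0%) controls. Cell-Titer Glo luminescence measured after 4-5 days at 37° C exposure of uninfected MT-4 and HEp-2 cells to 3-fold dilutions spanning 15 nM to 100,000 nM.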

[6] = GI S9 stability - no PMSF; assay type: in vitro ADME; settings: pH 7.4; human intestinal S9, PMSF-free; read-out: GIS9-HUMAN-NoPMSF T1/2
Summary of the method: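 Stability was assessed by Q-Exactive LC-MS peak area ratios against internal standard, tracking loss of parent and appearance of nucleoside metabolite Reference Compound A. Incubations used 2 μM compound in 1 mg/mL intestinal S9 without PMSF (PBS, pH 7.4), with six samples taken over 120 min.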

Plasma stability = assay type: in vitro ADME; set-up: unit not given here; settings: 37° C., 2 μM substrate
Summary of the method: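 LC-MS (Q-Exactive, 5 ppm tolerance, 0.1% formic acid water/acetonitrile gradient) quantified compound in quenched aliquots. Aliquots were taken at 0.05, 0.5, 1, 2, 3 and 4 hr and quenched with internal-standard solution, and supernatants were diluted with water after centrifugation.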

[7] = system: Caco-2 cells (clone C2BBe1); experiment: CACO-2 permeability; assay type: in vitro ADME; set-up: unit not given here; settings: for DM Caco2 A to B: apical to basolateral, donor pH 6.5, receiver pH 7.4; for DM Caco2 B to A: basolateral to apical
Summary of the method: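 A-to-B and B-to-A flux measured by LC-MS/MS from receiver samples taken at 1 and 2 h, with donor sampled at 0 and 2 h and recovery checked. Buffers: pH 6.5 HBSS with 200 μM BNPP on the donor side, pH 7.4 with BSA on the receiver side. Monolayers were 21-day cultures, TEER-verified, in duplicate wells.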

[8] = A549, read-out: EC50 SARS CoV2 NanoLuc A549 384
[9] = read-out: EC50 RSVFluc-NHBE 384 V2

| Compound | EC50 [2] [µM] | EC50 ([3]; 48 h, read-out: SARS-CoV2 EC50) [µM] | EC50 ([4]; 72 h, read-out: RSV NHBE EC50) [µM] | CC50 [5] [µM] | half-life at 2 µM [6] [min] | STA Human Plasma 37 (Plasma stability) | EC50 [3, 8] [µM] | EC50 [4, 9] [µM] | logD (physchem) | also measured |
| --- | --- | --- | --- | --- | --- | --- | --- | --- | --- | --- |
| CC(C)C(=O)OC[C@H]1O[C@@](C#N)(c2ccc3c(N)ncnn23)[C@H](OC(=O)C(C)C)[C@@H]1OC(=O)C(C)C [2nd Ester Reference Compound] | – | – | – | – | – | – | – | – | – | Stability at pH2, 0 hr ([1]; 0 h, 50 µg/mL, pH 2): 100.0 % AN; Stability at pH2, 3 hr ([1]; 3 h, 50 µg/mL, pH 2): 100.0 % AN; Stability at pH2, 6 hr ([1]; 6 h, 50 µg/mL, pH 2): 100.0 % AN; Stability at pH2, 9 hr ([1]; 9 h, 50 µg/mL, pH 2): 98.3 % AN; Stability at pH2, 12 hr ([1]; 12 h, 50 µg/mL, pH 2): 97.7 % AN; Stability at pH2, 24 hr ([1]; 24 h, 50 µg/mL, pH 2): 96.2 % AN |
| CC(C)OC(=O)OC[C@H]1O[C@@](C#N)(c2ccc3c(NC(=O)C(C)C)ncnn23)[C@H](OC(=O)C(C)C)[C@@H]1OC(=O)C(C)C [Compound 75, (2R,3R,4R,5R)-2-cyano-2-(4-isobutyramidopyrrolo[2,1-f][1,2,4]triazin-7-yl)-5-(((isopropoxycarbonyl)oxy)methyl)tetrahydrofuran-3,4-diyl bis(2-methylpropanoate)] | 1.03 | 5.06 | 0.321 | > 50 | 0.884 | 277.1 | – | – | – | pH 2 Stability 24 h % AN ([1]; pH2 phosphate buffer, 40° C., 24 h, Table N2): 0 % AN |
| N#C[C@@]1(c2ccc3c(N)ncnn23)O[C@H](COC(=O)OCc2ncccn2)[C@@H](O)[C@H]1O [Compound 91, ((2R,3S,4R,5R)-5-(4-aminopyrrolo[2,1-f][1,2,4]triazin-7-yl)-5-cyano-3,4-dihydroxytetrahydrofuran-2-yl)methyl (pyrimidin-2-ylmethyl) carbonate] | 3.64 | 14.7 | 5.84 | > 50 | 42 | 285 | – | – | – | DM Caco2 A to B [7]: 0.02; DM Caco2 B to A [7]: 0.5 |
| N#C[C@@]1(c2ccc3c(N)ncnn23)O[C@H](COC(=O)OCCN2CCOCC2)[C@@H](O)[C@H]1O [Compound 92, ((2R,3S,4R,5R)-5-(4-aminopyrrolo[2,1-f][1,2,4]triazin-7-yl)-5-cyano-3,4-dihydroxytetrahydrofuran-2-yl)methyl (2-morpholinoethyl) carbonate] | 1.8 | 5.63 | 3.04 | > 50 | 238 | 139.9 | – | – | – | DM Caco2 A to B [7]: 0.07; DM Caco2 B to A [7]: 0.48 |
| N#C[C@@]1(c2ccc3c(N)ncnn23)O[C@H](COC(=O)OC(CF)CF)[C@@H](O)[C@H]1O [Compound 94, ((2R,3S,4R,5R)-5-(4-aminopyrrolo[2,1-f][1,2,4]triazin-7-yl)-5-cyano-3,4-dihydroxytetrahydrofuran-2-yl)methyl (1,3-difluoropropan-2-yl) carbonate] | 1.02 | 3.63 | 0.923 | > 50 | 1.13 | 105.4 | – | – | – | DM Caco2 A to B [7]: 0.13; DM Caco2 B to A [7]: 2.19 |
| CC(C)(C)OC(=O)C(C)(C)OC(=O)OC[C@H]1O[C@@](C#N)(c2ccc3c(N)ncnn23)[C@H](O)[C@@H]1O [Compound 138, tert-butyl 2-[[(2R,3S,4R,5R)-5-(4-aminopyrrolo[2,1-f][1,2,4]triazin-7-yl)-5-cyano-3,4-dihydroxy-tetrahydrofuran-2-yl]methoxycarbonyloxy]-2-methyl-propanoate] | – | – | – | > 50 | – | – | 21.2 | > 50 | 2 | – |
| C[C@@H](OC(=O)OC[C@H]1O[C@@](C#N)(c2ccc3c(N)ncnn23)[C@H](O)[C@@H]1O)[C@@H](C(=O)OCC(C)(C)C)N(C)C [Compound 147, neopentyl O-((((2R,3S,4R,5R)-5-(4-aminopyrrolo[2,1-f][1,2,4]triazin-7-yl)-5-cyano-3,4-dihydroxytetrahydrofuran-2-yl)methoxy)carbonyl)-N,N-dimethyl-L-threoninate] | – | – | – | > 50 | – | – | 2.85 | 2.47 | 2.5 | – |
| C[C@@H](OC(=O)OC[C@H]1O[C@@](C#N)(c2ccc3c(N)ncnn23)[C@H](O)[C@@H]1O)[C@@H](C(=O)OCC1CCCC1)N(C)C [Compound 148, (2S,3R)-cyclopentylmethyl 3-(((((2R,3S,4R,5R)-5-(4-aminopyrrolo[2,1-f][1,2,4]triazin-7-yl)-5-cyano-3,4-dihydroxytetrahydrofuran-2yl)methoxy)carbonyl)oxy)-2-(dimethylamino)butanoate] | – | – | – | > 50 | – | – | 2.05 | 2.1 | 2.7 | – |
| C[C@@H](OC(=O)OC[C@H]1O[C@@](C#N)(c2ccc3c(N)ncnn23)[C@H](O)[C@@H]1O)[C@@H](C(=O)OC1CCCC1)N(C)C [Compound 149, cyclopentyl O-((((2R,3S,4R,5R)-5-(4-aminopyrrolo[2,1-f][1,2,4]triazin-7-yl)-5-cyano-3,4-dihydroxytetrahydrofuran-2-yl)methoxy)carbonyl)-N,N-dimethyl-L-threoninate] | – | – | – | > 50 | – | – | 2.42 | 2.55 | 2.2 | – |
| C[C@@H](OC(=O)OC[C@H]1O[C@@](C#N)(c2ccc3c(N)ncnn23)[C@H](O)[C@@H]1O)[C@@H](C(=O)OC1CCOCC1)N(C)C [Compound 150, tetrahydro-2H-pyran-4-yl O-((((2R,3S,4R,5R)-5-(4-aminopyrrolo[2,1-f][1,2,4]triazin-7-yl)-5-cyano-3,4-dihydroxytetrahydrofuran-2-yl)methoxy)carbonyl)-N,N-dimethyl-L-threoninate] | – | – | – | > 50 | – | – | 2.37 | 3.08 | 1.3 | – |
| CC(C)OC(=O)[C@H](COC(=O)OC[C@H]1O[C@@](C#N)(c2ccc3c(N)ncnn23)[C@H](O)[C@@H]1O)N(C)C [Compound 151, isopropyl O-((((2R,3S,4R,5R)-5-(4-aminopyrrolo[2,1-f][1,2,4]triazin-7-yl)-5-cyano-3,4-dihydroxytetrahydrofuran-2-yl)methoxy)carbonyl)-N,N-dimethyl-L-serinate] | – | – | – | > 50 | – | – | 2.76 | 2.89 | 1.3 | – |
| CN(C)[C@@H](COC(=O)OC[C@H]1O[C@@](C#N)(c2ccc3c(N)ncnn23)[C@H](O)[C@@H]1O)C(=O)OCC1CCCC1 [Compound 152, cyclopentylmethyl O-((((2R,3S,4R,5R)-5-(4-aminopyrrolo[2,1-f][1,2,4]triazin-7-yl)-5-cyano-3,4-dihydroxytetrahydrofuran-2-yl)methoxy)carbonyl)-N,N-dimethyl-L-serinate] | – | – | – | > 50 | – | – | 1.28 | 3.63 | 2.2 | – |
| CN(C)[C@@H](COC(=O)OC[C@H]1O[C@@](C#N)(c2ccc3c(N)ncnn23)[C@H](O)[C@@H]1O)C(=O)OC1CCCC1 [Compound 153, cyclopentyl O-((((2R,3S,4R,5R)-5-(4-aminopyrrolo[2,1-f][1,2,4]triazin-7-yl)-5-cyano-3,4-dihydroxytetrahydrofuran-2-yl)methoxy)carbonyl)-N,N-dimethyl-L-serinate] | – | – | – | > 50 | – | – | 2.67 | 3.24 | 1.7 | – |
